≈ marks a conversion by molar mass, not a printed value. Read-outs that look alike come from different tables or passages of the source.

The test system of one series is ICR mice. Kind of series: Toxicity after intraperitoneal administration to ICR mice. It is filed as in vivo. The note with it: 50 mg/kg.
Series [1] has as its system Candida albicans TIMM0136. Kind of series: Antifungal spectrum, liquid medium dilution method. It is filed as cell-based. How it is done: (§1) The antifungal spectra of the above TKR1912-I and TKR1912-II against various microorganisms were determined. Using the liquid medium dilution method, the concentration causing a substantially complete inhibition of fungal growth was determined as minimal inhibitory concentration (μg/ml). Moreover, the minimal concentration (μg/ml) causing partial growth inhibition was determined and the results are presented in parentheses in Table 2. In the table, YNBG stands for YNBG medium comprising 0.67% of yeast nitrogen base (Difco) and 1.0% of glucose and BHI stands for BHI medium comprising brain-heart infusion bouillon (Nissui Pharmaceutical).

A further series has as its system Candida kefyr TIMM0301. Kind of series: Antifungal spectrum, liquid medium dilution method. It is filed as cell-based. The note with it: for MIC: Kluyveromyces marxianus. How it is done: as §1
In series [2] the test system is Cryptococcus neoformans TIMM0354. Kind of series: Antifungal spectrum, liquid medium dilution method. The series is classed as cell-based. How it is done: as §1
Series [3] relates to Aspergillus fumigatus TIMM1776. The series can be described thus: Antifungal spectrum, liquid medium dilution method. It is filed as cell-based. How it is done:
as §1

A further series is described as follows: Solubility in solvents. The series is classed as physicochemical.
Setting [4] is: Candida albicans TIMM0136, YNBG medium.
[5] abbreviates: Candida kefyr TIMM0301, YNBG medium.
Where [6] appears, read: Aspergillus fumigatus TIMM1776, BHI medium.

As to `CCCCCCCCCC/C=C/C1CC(C(=O)O)C(CC(=O)O)(C(=O)OC(C(=O)O)C(CC(=O)O)C(=O)O)O1` (stereo not drawn) [TKR1912-I], the toxic signs entry in the series on ICR mice is reported as “no toxic signs”. Further, the “minimal concentration causing partial growth inhibition (in parentheses)” value in series [1] (setting [4]) was “(1.56) μg/ml”; in the series with Candida kefyr TIMM0301 (setting [5]), “(6.25) μg/ml”; in series [3] (setting [6]) it was “(100) μg/ml”. Moreover, the MIC in series [1] (Candida albicans TIMM0136, YNBG medium, read-out: Minimal inhibitory concentration (substantially complete inhibition of fungal growth)) is 3.13 µg/mL (≈ 5.6 µM); in the series on Candida kefyr TIMM0301 (Candida kefyr TIMM0301, YNBG medium, read-out: Minimal inhibitory concentration (substantially complete inhibition of fungal growth)), 12.5 µg/mL (≈ 22.4 µM); in series [2] (Cryptococcus neoformans TIMM0354, YNBG medium, read-out: Minimal inhibitory concentration (substantially complete inhibition of fungal growth)), 6.25 µg/mL (≈ 11.2 µM); in series [3] (Aspergillus fumigatus TIMM1776, BHI medium, read-out: Minimal inhibitory concentration (substantially complete inhibition of fungal growth)) it was over 100 µg/mL. The solubility in hexane entry in the series “Solubility in solvents” is recorded as “practically insoluble”. Further, the “solubility in methanol, chloroform, and water” value in the series “Solubility in solvents” is given as “soluble”.
For `CCCCCCCC/C=C/CC/C=C/C1CC(C(=O)O)C(CC(=O)O)(C(=O)OC(C(=O)O)C(CC(=O)O)C(=O)O)O1` (stereo not drawn) [TKR1912-II], the toxic signs entry in the series on ICR mice is reported as “no toxic signs”. Besides, the “minimal concentration causing partial growth inhibition (in parentheses)” value in series [1] (setting [4]) is “(0.78) μg/ml”; in the series with Candida kefyr TIMM0301 (setting [5]) it was “(1.56) μg/ml”; in series [2] (Cryptococcus neoformans TIMM0354, YNBG medium), “(6.25) μg/ml”; in series [3] (setting [6]), “(25) μg/ml”. Moreover, the MIC is 3.13 µg/mL (≈ 5.35 µM) in series [1] (Candida albicans, TIMM0136, read-out: Minimal inhibitory concentration (substantially complete inhibition of fungal growth)); 3.13 µg/mL (≈ 5.35 µM) in the series with Candida kefyr TIMM0301 (TIMM0301, read-out: Minimal inhibitory concentration (substantially complete inhibition of fungal growth)); over 100 µg/mL in series [2] (Cryptococcus neoformans, TIMM0354, read-out: Minimal inhibitory concentration (substantially complete inhibition of fungal growth)); over 100 µg/mL in series [3] (Aspergillus fumigatus, TIMM1776, read-out: Minimal inhibitory concentration (substantially complete inhibition of fungal growth)). The solubility in hexane result in the series “Solubility in solvents” is given as “practically insoluble”. In addition, in the series “Solubility in solvents”, the “solubility in methanol, chloroform, and water” value is given as “soluble”.

Values taken from patent US6380245B1, “Antibiotics TKR1912-I and TKR1912-II and process for producing the same” (Takara Shuzo Co., Ltd., priority 1995, dated 2002).
